For the experiment, the target named is T1, purified Na,K-ATPase from lamb kidney (α1) (Ovis aries, UniProt P04074).
T1 construct: gene ATP1A1; native enzyme purified from lamb kidney (gift of W. Ball); with Sodium/potassium-transporting ATPase subunit beta-1
As to the kind of experiment: coupled pyruvate kinase/lactate dehydrogenase ATPase assay, NADH absorbance at […] nm, Hill fit. The class given is biochemical. Conditions: inhibition; 3 h incubation in K+-free solution; 5 mM ATP, 100 mM NaCl, 10 mM MgCl2; pH 7.3; 37 °C.

Among the data in article PMC7215781 (International Journal of Molecular Sciences, 2020) are K0.5 values, retold here.

The compound `C[C@@H]1O[C@@H](O[C@H]2C[C@@H](O)[C@]3(CO)[C@H]4[C@H](O)C[C@]5(C)[C@@H](C6=CC(=O)OC6)CC[C@]5(O)[C@@H]4CC[C@]3(O)C2)[C@H](O)[C@H](O)[C@H]1O` [ouabain] displayed a K0.5 of 157 ± 7 nM.
